The values below are quoted from earlier work in patent US6660297B2, “Nutritional supplement to treat macular degeneration” (Bausch & Lomb Incorporated, priority 2001, dated 2003).

Read-outs that look alike come from different tables or passages of the source.

For series [1] the following is noted: 1.0 mg equal to 1 IU.
For series [2] the following is noted: in vivo.
For series [3] the following is noted: in vivo. This is another data set of the same source.
The conditions of series [4]: consumed daily.
Assay in series [5]: not given
The source holds these as a separate data set.

Series [6] deals with macular degeneration. Conditions: 80 mg of zinc versus placebo.
The conditions of series [7]: in vivo. This is another data set of the same source.

As for `CC(=O)Oc1c(C)c(C)c2c(c1C)CC[C@@](C)(CCC[C@H](C)CCC[C@H](C)CCCC(C)C)O2` (racemic) [dl-alpha tocopheryl acetate], the “level at which no adverse effects have been observed” value in series [1] is given as at most 800 mg.

For `CC1=C(/C=C/C(C)=C/C=C/C(C)=C/C=C/C=C(C)/C=C/C=C(C)/C=C/C2=C(C)CCCC2(C)C)C(C)(C)CCC1` [beta-carotene], the “efficiency of conversion to vitamin A in the body” value in series [2] is given as “approximately 50%”. Moreover, the “observed risk in individuals who receive 20 mg/day” value runs as follows: (male smokers) “increased risk of lung cancer”; (men with previous myocardial infarction) “increased risk of fatal coronary heart attacks”. In addition, the “dosage level with no observed adverse effects” value (healthy, non-smokers) is at most 25 mg per day.

With `[Cu]` [copper], in series [3], the “effect on zinc absorption” value was “does not appear to have a deleterious effect”. As for `O=C1O[C@H]([C@@H](O)CO)C(O)=C1O` [vitamin C, Ascorbic acid], the “daily intake without any known adverse effects” value in series [4] is recorded as ≥ 1,000 mg. As to `[O]=[Zn]` [zinc oxide], the “tolerability in the digestive system” value in series [5] (in vivo) was “well tolerated”. With `[Zn]` [zinc], the “retarding macular degeneration changes” value in series [6] was “significantly better than placebo”. The tolerability result in series [5] (about 200 mg per day) was “well tolerated”. The side effects entry in series [5] (about 200 mg per day, attributable to copper deficiency) is recorded as “potential side effects such as anemia”.

With vitamin E, the “time stored vitamin E contributes to the total body pool” value in series [7] was “up to one”.
